Like-named read-outs stand apart in the source and are kept apart here.
Legend:
Human BOAT1 = molecular target: T1, Human BOAT1 (Homo sapiens, UniProt Q695T7); assay: hBOAT1 inhibitory test (phenylalanine uptake); format: cell-based; conditions: Human BOAT1 stable expression CHO cells, phenylalanine 0.25 mM, read-out: hB0AT1 IC50
T1 construct: expressed in transfected cells
T1 sequence (Q695T7 1-634): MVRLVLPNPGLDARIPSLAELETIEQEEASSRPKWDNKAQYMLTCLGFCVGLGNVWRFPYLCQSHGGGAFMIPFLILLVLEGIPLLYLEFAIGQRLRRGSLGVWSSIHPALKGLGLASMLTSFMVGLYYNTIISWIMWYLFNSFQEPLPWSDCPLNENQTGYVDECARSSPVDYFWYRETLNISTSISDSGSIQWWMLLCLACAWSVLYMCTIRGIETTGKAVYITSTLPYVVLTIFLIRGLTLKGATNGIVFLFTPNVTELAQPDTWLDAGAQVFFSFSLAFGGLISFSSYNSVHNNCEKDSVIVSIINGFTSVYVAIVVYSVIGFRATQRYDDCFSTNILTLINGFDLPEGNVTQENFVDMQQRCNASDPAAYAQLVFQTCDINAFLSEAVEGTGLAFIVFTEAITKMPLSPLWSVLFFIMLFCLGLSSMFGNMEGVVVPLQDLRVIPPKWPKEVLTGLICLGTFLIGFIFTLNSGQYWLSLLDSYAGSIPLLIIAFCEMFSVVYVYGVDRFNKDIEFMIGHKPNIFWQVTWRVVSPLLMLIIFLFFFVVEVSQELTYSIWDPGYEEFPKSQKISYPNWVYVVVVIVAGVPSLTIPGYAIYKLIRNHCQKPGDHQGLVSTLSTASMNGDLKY
Method in brief: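 Human BOAT1 stably expressed in CHO cells (75000 cells/well) in HEPES-buffered NaCl/KCl/CaCl2/MgCl2 buffer with 0.01% BSA, compound at 0.5% DMSO, preincubated ≥30 min at ordinary temperature. Uptake of L-phenylalanine plus [3H]-L-phenylalanine (0.25 mM final) read by scintillation proximity; 100–200 min values analysed, non-specific uptake defined with […] reference inhibitor.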

hERG channel = molecular target: T2, hERG channel (Homo sapiens, UniProt Q12809); assay: hERG channel inhibitory activity, whole-cell patch clamp (auto-patch clamp system); format: cell-based; conditions: read-out: hERG IC50
T2 construct: host or cells: CHO cells
Method: Evaluation of hERG (Human Ether-a-go-go Related Gene) Channel Inhibitory Activity
The hERG channel inhibitory activity of the compound of the present invention was measured using CHO cells (B′ SYS GmbH) forcibly expressing hERG channels involved in human rapidly active delayed rectifier potassium current (IKr) by the whole-cell patch clamp method using an auto-patch clamp system (SyncroPatch384PE).
Cell suspension, extracellular fluid, intracellular fluid, and measurement plate (NPC-384 plate) were placed in the auto-patch clamp system, and hERG current measurements were performed using the whole-cell patch clamp method. The voltage protocol was set to a holding potential of −80 mV, with a depolarizing pulse preceded by −90 mV (100 ms) and followed by −80 mV (100 ms).
The depolarizing pulse was […] (500 ms), and then the hERG peak current value obtained during the ramp phase was measured when the voltage was lowered to −80 mV over 100 ms. The protocol was applied at 5-second intervals for 5 minutes for each concentration.
SyncroPatch software (manufactured by Nanion) was used for data analysis. Four concentrations were applied incrementally for each test substance, and the average hERG Peak current value obtained from the last three stimuli of each applied concentration was used as the evaluation data. The IC50 value was calculated from the inhibition rate of the current at each concentration of each test substance relative to the pre-application value using Hill's equation (Hill equation) using the relevant software.
The same experiments were also performed using the example compounds described in WO 2023/145804 as comparative example compounds 1-4.

[1] = [3H]-L-phenylalanine uptake, radioactivity after 100 to 200 min

T2 sequence (Q12809 whole entry): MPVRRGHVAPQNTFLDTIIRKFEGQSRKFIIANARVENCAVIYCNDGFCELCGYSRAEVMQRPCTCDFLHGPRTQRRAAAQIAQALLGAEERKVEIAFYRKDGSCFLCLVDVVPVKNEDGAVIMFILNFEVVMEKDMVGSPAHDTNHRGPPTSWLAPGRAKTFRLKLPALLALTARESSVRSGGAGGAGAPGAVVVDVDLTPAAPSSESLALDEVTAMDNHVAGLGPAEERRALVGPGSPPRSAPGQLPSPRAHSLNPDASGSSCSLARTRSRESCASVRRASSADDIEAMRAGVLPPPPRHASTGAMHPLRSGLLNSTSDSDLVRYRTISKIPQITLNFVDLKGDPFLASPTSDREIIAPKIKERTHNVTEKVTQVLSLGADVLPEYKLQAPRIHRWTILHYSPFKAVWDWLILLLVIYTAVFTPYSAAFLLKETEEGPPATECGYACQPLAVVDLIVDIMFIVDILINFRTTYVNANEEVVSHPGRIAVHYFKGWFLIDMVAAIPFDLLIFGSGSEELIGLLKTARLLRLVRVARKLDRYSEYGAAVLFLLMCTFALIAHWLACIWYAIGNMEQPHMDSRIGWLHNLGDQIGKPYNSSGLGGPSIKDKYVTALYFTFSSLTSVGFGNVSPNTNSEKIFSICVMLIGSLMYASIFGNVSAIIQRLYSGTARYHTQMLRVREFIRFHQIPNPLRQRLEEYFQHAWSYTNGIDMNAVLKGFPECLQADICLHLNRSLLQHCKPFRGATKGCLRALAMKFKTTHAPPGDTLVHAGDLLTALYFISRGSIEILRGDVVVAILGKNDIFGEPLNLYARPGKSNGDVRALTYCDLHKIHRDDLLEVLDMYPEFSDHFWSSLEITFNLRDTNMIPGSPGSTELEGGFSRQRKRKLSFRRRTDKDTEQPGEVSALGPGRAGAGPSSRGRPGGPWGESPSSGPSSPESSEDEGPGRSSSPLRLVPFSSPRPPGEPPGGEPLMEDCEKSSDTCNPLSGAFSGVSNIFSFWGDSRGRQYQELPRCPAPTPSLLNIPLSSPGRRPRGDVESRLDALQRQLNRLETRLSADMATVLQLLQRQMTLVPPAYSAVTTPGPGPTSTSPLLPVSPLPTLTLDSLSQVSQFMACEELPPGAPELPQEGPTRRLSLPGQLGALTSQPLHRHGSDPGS

Row | Compound | IC50 (Human BOAT1; [1]) [µM] | IC50 (hERG channel) [µM] | IC50 (Human BOAT1; phenylalanine uptake) [µM]
1 | O=C(O)Cc1ccc2c(c1F)CCN(C(=O)CNC(=O)/C=C/c1ccc(C(F)(F)F)cc1)C2 [I-162] | 0.141 | > 30 | –
2 | O=C(/C=C/c1ccc(C(F)(F)F)cc1)NCC(=O)N1CCc2cc(N3CCC(C(=O)O)CC3)ncc2C1 [I-173] | 0.477 | > 30 | –
3 | O=C(O)CCc1ccc2c(c1)CCN(C(=O)CNC(=O)/C=C/c1ccc(C(F)(F)F)cc1)C2 [I-174] | 0.149 | > 30 | –
4 | O=C(O)Cc1cc2c(cc1F)CN(C(=O)CNC(=O)/C=C/c1ccc(C(F)(F)F)cc1)CC2 [I-180] | 0.122 | > 30 | –
5 | O=C(O)Cc1ccc2c(c1)CCN(C(=O)CNC(=O)/C=C/c1ccc(C(F)(F)F)cc1)C2 [I-182] | 0.085 | > 30 | –
6 | O=C(O)Cc1ccc2c(c1)CCN(C(=O)CNC(=O)/C=C/c1ccc(I)cc1)C2 [I-183] | 0.046 | > 30 | –
7 | O=C(O)Cc1ccc2c(c1)CCN(C(=O)CNC(=O)/C=C/c1ccc(Br)cc1)C2 [I-184] | 0.127 | > 30 | –
8 | O=C(O)Cc1ccc2c(c1)CCN(C(=O)CNC(=O)/C=C/c1ccc(Cl)cc1)C2 [I-185] | 0.168 | > 30 | –
9 | O=C(O)Cc1ccc2c(c1)CCN(C(=O)CNC(=O)/C=C/c1ccc(Cl)cc1F)C2 [I-186] | 0.076 | > 30 | –
10 | O=C(O)Cc1ccc2c(c1)CCN(C(=O)CNC(=O)/C=C/c1ccc(C(F)(F)F)cc1F)C2 [I-187] | 0.059 | > 30 | –
11 | O=C(O)Cc1ccc2c(c1)CCN(C(=O)CNC(=O)/C=C/c1ccc(S(F)(F)(F)(F)F)cc1)C2 [I-190] | 0.102 | > 30 | –
12 | O=C(O)COc1ccc2c(c1)CCN(C(=O)CNC(=O)/C=C/c1ccc(C(F)(F)F)cc1)C2 [I-191] | 0.104 | > 30 | –
13 | O=C(O)COc1cccc2c1CCN2C(=O)CNC(=O)/C=C/c1ccc(C(F)(F)F)cc1 [I-194] | 0.074 | > 30 | –
14 | CC(C)(Oc1cc(F)c2c(c1)CCN(C(=O)CNC(=O)/C=C/c1ccc(C(F)(F)F)cc1)C2)C(=O)O [I-195] | 0.186 | > 30 | –
15 | C[C@@H]1CN(C(=O)CNC(=O)/C=C/c2ccc(C(F)(F)F)cc2F)[C@@H](C)CN1CCCC(=O)O [I-197] | 2.4 | > 30 | –
16 | C[C@@H]1CN(C(=O)CNC(=O)/C=C/c2ccc(C(F)(F)F)cc2F)[C@H](C)CN1CCCC(=O)O [I-199] | 0.37 | > 30 | –
17 | O=C(O)Cc1nc2c(s1)CCN(C(=O)CNC(=O)/C=C/c1ccc(C(F)(F)F)cc1)C2 [I-201] | 0.054 | > 30 | –
18 | O=C(O)Cc1nc2c(s1)CN(C(=O)CNC(=O)/C=C/c1ccc(C(F)(F)F)cc1)CC2 [I-202] | 0.149 | > 30 | –
19 | O=C(O)CCCN1CCN(C(=O)CNC(=O)/C=C/c2ccc(C(F)(F)F)cc2)C(c2ccccc2)C1 (stereo not drawn) [I-204] | 0.246 | > 30 | –
20 | O=C(O)Cc1cc(F)c2c(c1)CCN(C(=O)CNC(=O)/C=C/c1ccc(C(F)(F)F)cc1F)C2 [I-205] | 0.099 | > 30 | –
21 | O=C(O)CSc1nc2c(s1)CN(C(=O)CNC(=O)/C=C/c1ccc(C(F)(F)F)cc1F)CC2 [I-214] | 0.091 | > 30 | –
22 | O=C(O)CSc1nc2c(s1)CN(C(=O)CNC(=O)/C=C/c1ccc(C(F)(F)F)cc1)CC2 [I-215] | 0.165 | > 30 | –
23 | N#Cc1cc2c(cc1CC(=O)O)CCN(C(=O)CNC(=O)/C=C/c1ccc(I)cc1F)C2 [I-223] | 0.086 | 28.5 | –
24 | N#Cc1cc2c(cc1CC(=O)O)CCN(C(=O)CNC(=O)/C=C/c1ccc(C(F)(F)F)cc1F)C2 [I-224] | 0.11 | > 30 | –

Row | Compound | IC50 (Human BOAT1; [1]) [µM] | IC50 (hERG channel) [µM] | IC50 (Human BOAT1; phenylalanine uptake) [µM]
25 | N#Cc1cc2c(cc1CC(=O)O)CCN(C(=O)CNC(=O)/C=C/c1ccc(C(F)(F)F)cc1F)C2 [I-225] | 0.295 | 26.2 | –
26 | O=C(O)Cc1cc2c(cc1Cl)CN(C(=O)CNC(=O)/C=C/c1ccc(C(F)(F)F)cc1)CC2 [I-226] | 0.101 | > 30 | –
27 | CC1CN(C(=O)CNC(=O)/C=C/c2ccc(C(F)(F)F)cc2F)CCN1CCCC(=O)O (stereo not drawn) [I-231] | 0.234 | > 30 | –
28 | O=C(O)CCCN1CCN(C(=O)CNC(=O)/C=C/c2ccc(C(F)(F)F)cc2F)[C@@H](c2ccc(Br)cc2)C1 [I-232] | 0.03 | 19.3 | –
29 | O=C(O)CCCN1CCN(C(=O)CNC(=O)/C=C/c2ccc(C(F)(F)F)cc2F)C(c2ccccc2Cl)C1 (stereo not drawn) [I-233] | 0.609 | > 30 | –
30 | O=C(O)CCCN1CCN(C(=O)CNC(=O)/C=C/c2ccc(C(F)(F)F)cc2F)C(c2ccc(F)cc2)C1 (stereo not drawn) [I-237] | 0.199 | > 30 | –
31 | O=C(O)CCCN1CCN(C(=O)CNC(=O)/C=C/c2ccc(C(F)(F)F)cc2F)C(c2cccc(Cl)c2)C1 (stereo not drawn) [I-238] | 0.097 | > 30 | –
32 | O=C(O)CCCN1CCN(C(=O)CNC(=O)/C=C/c2ccc(C(F)(F)F)cc2F)C(c2cccc(F)c2)C1 (stereo not drawn) [I-239] | 0.302 | > 30 | –
33 | O=C(O)CCCN1CCN(C(=O)CNC(=O)/C=C/c2ccc(C(F)(F)F)cc2F)C(c2ccccc2F)C1 (stereo not drawn) [I-240] | 0.197 | > 30 | –
34 | O=C(O)CCN1CCN(C(=O)CNC(=O)/C=C/c2ccc(C(F)(F)F)cc2F)C(c2ccccc2)C1 (stereo not drawn) [I-241] | 0.161 | > 30 | –
35 | O=C(O)CCCCN1CCN(C(=O)CNC(=O)/C=C/c2ccc(C(F)(F)F)cc2F)C(c2ccccc2)C1 (stereo not drawn) [I-242] | 0.158 | > 30 | –
36 | O=C(O)CCCN1CCN(C(=O)CNC(=O)/C=C/c2ccc(C(F)(F)F)cc2F)[C@@H](C(F)(F)F)C1 [I-243] | 3.7 | > 30 | –
37 | O=C(O)CCCN1CCN(C(=O)CNC(=O)/C=C/c2ccc(C(F)(F)F)cc2F)[C@H](C(F)(F)F)C1 [I-244] | 0.613 | > 30 | –
38 | O=C(/C=C/c1ccc(C(F)(F)F)cc1F)NCC(=O)N1CCN(C[C@H]2C[C@H](C(=O)O)C2)CC1c1ccc(Cl)cc1 (stereo partly drawn) [I-248] | 0.147 | > 30 | –
39 | O=C(/C=C/c1ccc(C(F)(F)F)cc1F)NCC(=O)N1CCN(CC23CC(C(=O)O)(C2)C3)CC1c1ccc(Cl)cc1 (stereo not drawn) [I-250] | 0.506 | > 30 | –
40 | O=C(/C=C/c1ccc(C(F)(F)F)cc1F)NCC(=O)N1CCCC(c2cccc(C(=O)O)c2)C1 (stereo not drawn) [I-255] | – | > 30 | 0.766
41 | O=C(O)CCCN1CCN(C(=O)CNC(=O)/C=C/c2ccc(C(F)(F)F)cc2F)C(c2ccc(Cl)c(F)c2)C1 (stereo not drawn) [I-257] | – | 29.6 | 0.108
42 | C[C@@H]1CN(C(=O)CNC(=O)/C=C/c2ccc(C(F)(F)F)cc2F)[C@@H](c2ccccc2)CN1CCCC(=O)O [I-261] | – | > 30 | 0.03
43 | C[C@@H]1CN(C(=O)CNC(=O)/C=C/c2ccc(C(F)(F)F)cc2F)[C@@H](c2ccc(Cl)cc2)CN1CCCC(=O)O [I-337] | – | 15.5 | 0.031
44 | C[C@@H]1CN(C(=O)CNC(=O)/C=C/c2ccc(C(F)(F)F)cc2F)[C@@H](c2ccc(F)cc2)CN1CCCC(=O)O [I-338] | – | > 30 | 0.054
45 | C[C@@H]1CN(C(=O)CNC(=O)/C=C/c2ccc(C(F)(F)F)cc2F)[C@@H](c2cccc(F)c2)CN1CCCC(=O)O [I-340] | – | > 30 | 0.062
46 | O=C(O)CCCN1C[C@H](c2ccccc2)N(C(=O)CNC(=O)/C=C/c2ccc(C(F)(F)F)cc2F)CC12CC2 [I-341] | – | > 30 | 1.68
47 | CC(C)[C@@H]1CN(C(=O)CNC(=O)/C=C/c2ccc(C(F)(F)F)cc2F)[C@@H](c2ccccc2)CN1CCCC(=O)O [I-342] | – | > 30 | 0.338
48 | CC[C@@H]1CN(C(=O)CNC(=O)/C=C/c2ccc(C(F)(F)F)cc2F)[C@@H](c2ccccc2)CN1CCCC(=O)O [I-343] | – | > 30 | 0.091
